The supplement of paper PMC6045584
± gives the standard deviation of the averaged measurements.

Assays:
CABOZANTINIB = compound: COc1cc2nccc(Oc3ccc(NC(=O)C4(C(=O)Nc5ccc(F)cc5)CC4)cc3)c2cc1OC [CABOZANTINIB]; assay: surviving fraction relative to DMSO-only wells; higher = less growth inhibition; conditions: exposure time: 5 days
Procedure, shortened: (§1)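 Tumour cell lines were grown to log phase and seeded at 250–500 cells per well in 384-well plates. They were exposed continuously to inhibitors at 0.5, 1, 5, 10, 50, 100, 500 and 1000 nM for five days, beginning 24 hours after seeding. Surviving fraction is CellTiter-Glo luminescence normalised to the median of DMSO-only wells.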

LENVATINIB = compound: COc1cc2nccc(Oc3ccc(NC(=O)NC4CC4)c(Cl)c3)c2cc1C(N)=O [LENVATINIB]; assay: as above; conditions: exposure time: 5 days
Procedure, shortened: as §1

Test System	surviving fraction (CABOZANTINIB; 0.5 nM)	surviving fraction (CABOZANTINIB; 1 nM)	surviving fraction (CABOZANTINIB; 5 nM)	surviving fraction (CABOZANTINIB; 10 nM)	surviving fraction (CABOZANTINIB; 50 nM)	surviving fraction (CABOZANTINIB; 100 nM)	surviving fraction (CABOZANTINIB; 500 nM)	surviving fraction (CABOZANTINIB; 1000 nM)	surviving fraction (LENVATINIB; 0.5 nM)	surviving fraction (LENVATINIB; 1 nM)	surviving fraction (LENVATINIB; 5 nM)	surviving fraction (LENVATINIB; 10 nM)	surviving fraction (LENVATINIB; 50 nM)	surviving fraction (LENVATINIB; 100 nM)	surviving fraction (LENVATINIB; 500 nM)	surviving fraction (LENVATINIB; 1000 nM)
22RV1 PROSTATE	0.946 ± 0.039	1.03 ± 0.018	0.992 ± 0.056	1 ± 0.13	1.03 ± 0.06	1.08 ± 0.15	1.07 ± 0.095	0.909 ± 0.18	1.06 ± 0.03	1.05 ± 0.056	1.05 ± 0.059	1.01 ± 0.075	1.05 ± 0.11	0.97 ± 0.031	1.08 ± 0.032	1.06 ± 0.12
93VU HEADNECK	0.824 ± 0.084	0.841 ± 0.026	0.916 ± 0.028	1.01 ± 0.14	1.02 ± 0.084	0.967 ± 0.05	0.777 ± 0.042	0.71 ± 0.051	1.05 ± 0.044	1.11 ± 0.074	1.09 ± 0.12	1.167 ± 0.0038	1.18 ± 0.087	1.19 ± 0.086	0.99 ± 0.036	1.11 ± 0.024
143B BONE	1.07 ± 0.08	1.03 ± 0.023	1.02 ± 0.013	1.05 ± 0.02	1.01 ± 0.038	1.09 ± 0.059	1.048 ± 0.0092	1.06 ± 0.031	0.992 ± 0.0085	1.018 ± 0.0064	1.04 ± 0.022	1.01 ± 0.027	1.04 ± 0.012	1.05 ± 0.015	1.05 ± 0.022	1.05 ± 0.013
A549 LUNG	1.03 ± 0.016	0.976 ± 0.028	0.977 ± 0.022	0.98 ± 0.012	1.01 ± 0.02	1.01 ± 0.03	0.994 ± 0.021	0.97 ± 0.029	1.04 ± 0.067	1.03 ± 0.053	1.04 ± 0.053	1.04 ± 0.061	1.06 ± 0.087	1.03 ± 0.044	1.13 ± 0.073	1.12 ± 0.025
ASKA SYNOVIAL	1.09 ± 0.049	1.1 ± 0.062	1.13 ± 0.11	1.18 ± 0.029	1.08 ± 0.04	1.2 ± 0.03	1.1 ± 0.1	1.03 ± 0.029	1.12 ± 0.063	1.04 ± 0.045	1.13 ± 0.082	1.12 ± 0.1	1.19 ± 0.11	1.21 ± 0.024	1.09 ± 0.044	1.04 ± 0.041
BT20 BREAST	1.02 ± 0.047	1.09 ± 0.097	1.05 ± 0.069	1.2 ± 0.08	1.11 ± 0.012	1.19 ± 0.11	1.19 ± 0.1	1.17 ± 0.18	1.15 ± 0.07	1.2 ± 0.077	1.21 ± 0.093	1.01 ± 0.15	1.05 ± 0.088	1.05 ± 0.16	1.24 ± 0.16	1.08 ± 0.2
BT549 BREAST	1.05 ± 0.047	1.02 ± 0.024	1.07 ± 0.034	1.02 ± 0.2	1.22 ± 0.017	1.13 ± 0.16	1.12 ± 0.18	1.16 ± 0.14	1.1 ± 0.043	1.16 ± 0.27	1.24 ± 0.031	1.11 ± 0.26	1.04 ± 0.15	1.15 ± 0.056	1.11 ± 0.087	1.06 ± 0.11
C33A CERVIX	0.753 ± 0.12	0.696 ± 0.036	0.941 ± 0.021	0.885 ± 0.076	0.862 ± 0.071	0.919 ± 0.019	0.702 ± 0.0072	0.676 ± 0.068	0.874 ± 0.037	0.937 ± 0.094	1 ± 0.14	1 ± 0.11	1.06 ± 0.097	1.14 ± 0.056	1.02 ± 0.1	0.955 ± 0.088
CADOES1 SOFT TISSUE	0.946 ± 0.15	0.895 ± 0.081	0.994 ± 0.054	0.914 ± 0.15	0.858 ± 0.16	0.877 ± 0.034	0.976 ± 0.056	0.878 ± 0.17	0.975 ± 0.14	0.885 ± 0.14	0.859 ± 0.14	0.885 ± 0.049	0.897 ± 0.1	0.836 ± 0.11	0.839 ± 0.075	0.842 ± 0.17
CAL51 BREAST	1.01 ± 0.08	0.953 ± 0.025	1.04 ± 0.041	0.954 ± 0.062	1.06 ± 0.056	1.07 ± 0.022	0.944 ± 0.091	0.89 ± 0.015	0.974 ± 0.023	0.975 ± 0.011	0.983 ± 0.011	0.98 ± 0.031	0.973 ± 0.045	0.976 ± 0.022	0.853 ± 0.051	0.755 ± 0.0033
CAL72 BONE	1.03 ± 0.082	1.03 ± 0.093	1.07 ± 0.11	1.06 ± 0.079	1.09 ± 0.095	1.14 ± 0.019	1.11 ± 0.12	1.08 ± 0.11	1.14 ± 0.086	1.12 ± 0.046	1.14 ± 0.088	1.12 ± 0.062	1.16 ± 0.069	1.18 ± 0.12	1.01 ± 0.13	0.613 ± 0.051
CAL120 BREAST	0.918 ± 0.082	0.924 ± 0.054	0.941 ± 0.056	0.921 ± 0.051	0.968 ± 0.052	0.923 ± 0.019	0.893 ± 0.045	0.886 ± 0.026	0.968 ± 0.014	0.984 ± 0.028	1.01 ± 0.023	1.01 ± 0.024	0.9848 ± 0.0086	0.984 ± 0.028	0.866 ± 0.024	0.753 ± 0.049
CASKI CERVIX	0.969 ± 0.021	0.914 ± 0.05	0.942 ± 0.021	0.907 ± 0.063	0.959 ± 0.031	0.907 ± 0.021	0.953 ± 0.038	0.768 ± 0.027	0.944 ± 0.077	0.98 ± 0.096	0.988 ± 0.014	1.01 ± 0.019	1.026 ± 0.0064	1.08 ± 0.063	0.985 ± 0.073	0.956 ± 0.073
CHLA90 AUTONOMIC GANGLIA	0.917 ± 0.024	0.936 ± 0.052	0.9 ± 0.065	0.863 ± 0.016	0.913 ± 0.023	0.907 ± 0.072	0.868 ± 0.11	0.856 ± 0.097	0.984 ± 0.039	0.999 ± 0.043	0.954 ± 0.05	1 ± 0.077	0.972 ± 0.049	0.939 ± 0.051	1.05 ± 0.043	1.04 ± 0.034
CME SYNOVIAL	1.23 ± 0.11	1.24 ± 0.16	1.24 ± 0.11	1.21 ± 0.042	1.2 ± 0.046	1.19 ± 0.15	1.1 ± 0.071	1.01 ± 0.12	1.28 ± 0.14	1.25 ± 0.12	1.18 ± 0.092	1.17 ± 0.3	1.22 ± 0.076	1.1 ± 0.038	0.847 ± 0.074	0.91 ± 0.029
COLO320DM LARGE INTESTINE	1.08 ± 0.12	1.07 ± 0.13	1.04 ± 0.13	1.11 ± 0.08	1.18 ± 0.069	1.23 ± 0.093	1.16 ± 0.049	1.04 ± 0.099	1.16 ± 0.058	1.1 ± 0.077	1.05 ± 0.053	1.1 ± 0.18	1.17 ± 0.033	1.1 ± 0.072	1.14 ± 0.067	1.11 ± 0.068
DU4475 BREAST	0.782 ± 0.12	0.874 ± 0.076	0.868 ± 0.053	0.93 ± 0.16	0.899 ± 0.19	0.781 ± 0.085	0.908 ± 0.096	1.03 ± 0.12	1.02 ± 0.26	1.12 ± 0.21	0.991 ± 0.23	0.994 ± 0.17	0.935 ± 0.22	1.06 ± 0.16	0.912 ± 0.2	0.994 ± 0.26
